Source: PMC4818699 (Angewandte Chemie (International ed. in English), 2016)

Test system: MoeN5 (MoeN5-CS) (Streptomyces viridosporus)
Experiment: X-ray crystal structure of the complex
Type: binding
Conditions: allylic site S1, near Asp-rich motifs; also PDB 5B03

Sequence of MoeN5 (MoeN5-CS) (Streptomyces viridosporus) (A0A010 1-260): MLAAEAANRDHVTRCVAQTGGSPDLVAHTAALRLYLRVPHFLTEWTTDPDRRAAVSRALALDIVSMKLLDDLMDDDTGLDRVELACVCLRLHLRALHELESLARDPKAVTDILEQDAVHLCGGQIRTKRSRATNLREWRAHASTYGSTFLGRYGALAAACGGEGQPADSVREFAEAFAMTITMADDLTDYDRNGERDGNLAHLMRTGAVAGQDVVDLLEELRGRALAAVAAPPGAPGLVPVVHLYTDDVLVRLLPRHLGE

CC(C)=CCC/C(C)=C/COP(=O)(O)OP(=O)(O)O [compound 6, geranyl diphosphate] was tested. Which “X-ray crystal structure of the complex” value did it give?
The value was “GPP binds to MoeN5-CS close to the Asp-rich domains”.
